Source: US12011474B2, “Composition comprising a mixture of molecules extracted from Chrysanthellum indicum, Cynara scolymus and Lycium barbarum and use to act on carbohydrate and/or fat metabolism” (VALBIOTIS, priority 2015, dated 2024)

Tested on: db/db mice
Assay: Fasting blood glucose in db/db mice
Assay type: in vivo
Conditions: same db/db model, separate experiment with younger mice, control group 414 mg/dL
Source text: The experiments were done on db/db mice.
The experimental time was 9 weeks with a “Run-in” of 1 week followed by 8 weeks of supplementation with the plant extracts and a composition X. The male mice were 10 weeks old at the beginning of treatment.
The experimental assessments in particular pertained to: • The measurement of the serous lipids (total cholesterol, LDL cholesterol, triglycerides); • The evolution of the blood glucose during an oral sensitivity test to insulin. This test consisted of an intraperitoneal injection of insulin (2 U/kg) on an empty stomach. The evolution of the blood glucose in response to the insulin injection was measured in the tail by biopsy just before the injection (t0), then after 30, 60, 90 and 120 minutes. The area under the curve (AUC) was calculated. A decrease in the AUC reflects a better response to the insulin injection, and therefore improved insulin sensitivity. Conversely, an increase in the AUC reflects a lower quality sensitivity to the insulin, and therefore insulin resistance; • The measurement of the fasting blood glucose.
The evaluations presented were done just before the supplementation (t=0) and at the end of supplementation (t=8 weeks).

SMILES: CN(C)C(=N)N=C(N)N [metformin]
- Fasting blood glucose: 463 mg/d L
- Increase of fasting blood glucose versus control group: 11%
